Results on three substances are retold here after publication PMC4633044, “Quorum Sensing Peptides Selectively Penetrate the Blood-Brain Barrier” (PLoS ONE, 2015).

Data set [1] has as its system blood-brain barrier.
Data set [2] relates to mouse brain (blood-brain barrier). To be noted: in vivo.
The test system is the same in data set [3]. To be noted: in vivo; for Kin / Kin (text): iv.
Data set [4] deals with mouse brain capillaries / parenchyma. Particulars: in vivo, iv.
The subject of data set [5] is mouse brain (blood-brain barrier). To be noted: general value for the positive control; cited from earlier work. An excerpt:
To evaluate these transport results, we compared them with the net clearances of oth ...

The conditions of data set [6]: mouse, in vivo, iv.
The conditions of data set [7]: 0, 30, 120 min.

Regarding SYPGWSW [PhrCACET1], the BBB influx classification result in data set [1] is reported as “very high influx”. In addition, in data set [2], the kout was -0.02 ± 0.04 min⁻¹ and the “kout (text)” value was -0.02 ± 0.03. In data set [3], the “Brain distribution volume, Vg” value was determined as 54.90 ± 5.75 µL/g; the Kin stood at 20.87 ± 7.97 µL/g/min; the “Kin (text)” value stood at 20.87 µL/g/min. In data set [4], the Capillary fraction was 15.1%; the “Capillary fraction, first animal (Fig 3)” value amounted to 13.97%; the “Capillary fraction, second animal (Fig 3)” value amounted to 16.20%; the “Parenchyma fraction, first animal (Fig 3)” value is listed as 86.03%. In data set [4], the “Parenchyma fraction, second animal (Fig 3)” value is recorded as 83.80% and the Parenchymal fraction is recorded as 84.9%.
Regarding dermorphin [reference compound], the BBB influx classification result in data set [1] is reported as “low influx”. Further, the “clearance as % of the plasma flow to the brain” value in data set [5] is recorded as “about 0.05%”. In data set [6], the “Tissue distribution (in words)” value is “mainly distributed in the duodenum, followed by the liver”. This substance gave a kout in data set [2] of -0.11 ± 0.02 min⁻¹. Further, in data set [3], the “Brain distribution volume, Vg” value is 23.05 ± 1.18 µL/g; the Kin stood at 5.26 ± 0.93 µL/g/min; the “Kin (text)” value is 5.26 μl/(gxmin). In data set [4], this substance gave a Capillary fraction of 37.0% and a Parenchymal fraction of 63.0%.
Consider “GLWEDLLYNINRYAHYIT [BIP-2, bacteriocin-inducing peptide 2]”, for which, in data set [1], the BBB influx classification result is recorded as “low influx”. Moreover, the “Tissue distribution (in words)” value in data set [6] was “strongly accumulated in the liver”. In data set [2], the kout was -0.06 ± 0.02 min⁻¹ and the “kout (text)” value is -0.06 ± 0.02. In addition, in data set [3], the “Brain distribution volume, Vg” value is 18.22 ± 1.43 µL/g; the Kin is 2.68 ± 0.66 µL/g/min; the “Kin (text)” value was determined as 2.68 µL/g/min. In data set [4], the Capillary fraction was determined as 23.1%; the “Capillary fraction, first animal (Fig 3)” value is given as 23.14%; the “Capillary fraction, second animal (Fig 3)” value came to 23.04%; the “Parenchyma fraction, first animal (Fig 3)” value worked out at 76.86%. For the same substance, in data set [4], the “Parenchyma fraction, second animal (Fig 3)” value was determined as 76.96% and the Parenchymal fraction is 76.9%. For the same substance, the “half-life in human plasma” value in data set [7] amounted to 5.345 h.
